Test results: patent US11773085B2 (Foghorn Therapeutics Inc., priority 2018, dated 2023)
pIC50: −log10 of the molar value.

Tests used:
SYO1 cells [1] = experiment: Cell cycle analysis, Click-iT Plus EdU Flow Cytometry Assay; format: cell-based; conditions: SYO1, 200 nM or 1 μM, 8 or 13 days, compared to DMSO and lenalidomide
Procedure: (§1) SYO1 cells were treated for 8 or 13 days with DMSO, a BRD9 degrader (Compound 1) at 200 nM or 1 μM, or an E3 ligase binder (lenalidomide) at 200 nM. Compounds were refreshed every 5 days. Cell cycle analysis was performed using the Click-iT™ Plus EdU Flow Cytometry Assay (Invitrogen). The apoptosis assay was performed using the Annexin V-FITC Apoptosis Detection Kit (Sigma A9210). Assays were performed according to the manufacturer's protocol.

SYO1 cells [2] = experiment: Apoptosis assay, Annexin V-FITC Apoptosis Detection Kit; format: cell-based; conditions: SYO1, 200 nM or 1 μM, 8 days, compared to DMSO controls
Procedure: as §1

[3] = test system: non-synovial control cancer cell lines (293T, A549, G401); experiment: Growth of non-synovial control cancer cell lines (crystal violet, colony imaging); format: cell-based; conditions: FIGS. 5, 6, 7
Procedure: (§2) Cells were treated with DMSO or the BRD9 degrader, Compound 1, at indicated concentrations, and proliferation was monitored from day 7 to day 14 by measuring confluency over time using an IncuCyte live cell analysis system (FIG. 5). Growth medium and compounds were refreshed every 3-4 days.
(§3) Cells were seeded into 12-well plates and treated with DMSO, 1 μM BRD9 inhibitor, Compound 2 (also known as BI-7273, see Martin et al, J Med Chem. 59(10):4462-4475 (2016); see structure of compound 2 below), or 1 μM BRD9 degrader, Compound 1.
(§4) The number of cells was optimized for each cell line. Growth medium and compounds were refreshed every 3-5 days. SYO1, Yamato, A549, 293T and HS-SY-II cells were fixed and stained at day 11. ASKA cells were fixed and stained at day 23. Staining was done by incubation with crystal violet solution (0.5 g Crystal Violet, 27 ml 37% Formaldehyde, 100 mL 10×PBS, 10 mL Methanol, 863 dH20 to 1 L) for 30 min followed by 3× washes with water and drying the plates for at least 24 h at room temperature. Subsequently plates were scanned on an Odyssey CLx Imaging system (FIG. 6).
(§5) Cells were seeded into 96-well ultra low cluster plate (Costar, #7007) in 200 μL complete media and treated at day 2 with DMSO, Staurosporin, or BRD9 degarder, Compound 1, at indicated doses (FIG. 7). Media and compounds were changed every 5 d and cell colonies were imaged at day 14.

[4] = test system: synovial sarcoma cell lines (SYO1, Yamato, HS-SY-II, and ASKA); experiment: Growth of synovial sarcoma cell lines (IncuCyte confluency, crystal violet, colony imaging); format: cell-based; conditions: 1 μM in crystal violet assay, FIGS. 5, 6, 7
Procedure: as §2, §3, §4, §5

[5] = test system: synovial sarcoma cell lines (SYO1, HS-SY-II, and ASKA); experiment: Growth of synovial sarcoma cell lines, crystal violet staining at day 14; format: cell-based; conditions: for inhibition of cell growth: SYO1, HS-SY-II, ASKA, treated daily, day 14, FIG. 8
Procedure: (§6) Cells were seeded into 6-well or 12-well plates and were treated daily with a BRD9 degrader (Compound 1), a bromo-domain BRD9 binder (Compound 2), E3 ligase binder (lenalidomide), DMSO, or staurosporin (positive control for cell killing), at indicated concentrations. The number of cells was optimized for each cell line. Growth media was refreshed every 5 days. By day 14, medium was removed, cells were washed with PBS, and stained using 500 μL of 0.005% (w/v) crystal violet solution in 25% (v/v) methanol for at least 1 hour at room temperature. Subsequently plates were scanned on an Odyssey CLx Imaging system.

[6] = test system: non-synovial control cancer cell lines (RD, HCT116, and Calu6); experiment: Growth of non-synovial control cancer cell lines, crystal violet staining at day 14; format: cell-based; conditions: treated daily, FIG. 9
Procedure: as §6

[7] = target: Nanoluciferase-BRD9 fusion protein (3×FLAG-NLuc-BRD9) (Homo sapiens (Human), UniProt Q9H8M2); experiment: SYO1 BRD9 NanoLuc degradation assay; format: cell-based; conditions: SYO-1 cells expressing 3×FLAG-NLuc-BRD9, 6 hours, 1 μM top dose; read-out: SYO1 BRD9-NanoLuc degradation IC50
Procedure: A stable SYO-1 cell line expressing 3×FLAG-NLuc-BRD9 was generated. On day 0 cells were seeded in 30 μL media into each well of 384-well cell culture plates. The seeding density was 8000 cells/well. […] Subsequently plates were incubated for 6 hours in a standard tissue culture incubator and equilibrated at room temperature for 15 minutes. Nanoluciferase activity was measured by adding 15 μL of freshly prepared Nano-Glo Luciferase Assay Reagent (Promega N1130), shaking the plates for 10 minutes and reading the bioluminescence using an EnVision reader.
The Inhibition % was calculated using the following formula: % Inhibition=100×(LumHC−LumSample)/(LumHC−LumLC). DMSO treated cells are employed as High Control (HC) and 1 μM of a known BRD9 degrader standard treated cells are employed as Low Control (LC).

BRD9 bromodomain = BRD9 bromodomain (Homo sapiens (Human), UniProt Q9H8M2); experiment: BRD9 bromodomain TR-FRET competition binding assay; conditions: 3 nM Flag-BRD9, 3.75 nM biotinylated ligand, 90 minutes at room temperature
Procedure: Cleaved His tag was removed by purification.
A mixture of biotinylated-ligand and SureLight™ Allophycocyanin-Streptavidin (APC-SA, PerkinElmer AD0201) in 50 mM HEPES (pH 7.4), 50 mM NaCl, 1 mM TCEP (pH 7), 0.01% (v/v) Tween-20, 0.01% (w/v) bovine serum albumin was added to a white 384-well PerkinElmer Proxiplate Plus plate. DMSO or 3-fold serially diluted compounds were then added to the Proxiplate followed by addition of Flag-BRD9. After a 10 minute incubation at room temperature, Eu-W1024 anti-FLAG (PerkinElmer, AD0273) was added.

| SMILES | DC50 [7] [nM] | pIC50 (BRD9 bromodomain) | further results |
| --- | --- | --- | --- |
| COc1cc(-c2cn(C)c(=O)c3cnccc23)cc(OC)c1CN(C)CC(=O)NCCOCCOCCNc1cccc2c1C(=O)N(C1CCC(=O)NC1=O)C2=O (centres unmarked) [Compound 1] |  |  | numbers of cells in the S-phase of the cell cycle (SYO1 cells [1]): reduced numbers of cells in the S-phase; numbers of early- and late-apoptotic cells (SYO1 cells [2]): increased numbers of early- and late-apoptotic cells; inhibition of cell growth [3]: does not result in inhibition of the growth; inhibition of cell growth [4]: results in inhibition of the growth of the cells; inhibition of cell growth [5]: resulted in inhibition of the growth of the cells; growth inhibition compared with the other agents tested ([5]; all synovial cell lines, versus Compound 2 and lenalidomide): most significant growth inhibition; inhibition of cell growth [6]: did not result in inhibition of the growth |
| COc1cc(-c2cn(C)c(=O)c3cnccc23)cc(OC)c1CN(C)C [Compound 2] |  |  | inhibition of cell growth [3]: does not result in inhibition of the growth; inhibition of cell growth [4]: results in inhibition of the growth of the cells; inhibition of cell growth [5]: resulted in inhibition of the growth of the cells; inhibition of cell growth [6]: did not result in inhibition of the growth |
| COc1cc(-c2cn(C)c(=O)c3cnccc23)cc(OCC(=O)NCCCCCCCCNc2cccc3c2C(=O)N(C2CCC(=O)NC2=O)C3=O)c1OC (centres unmarked) [Compound D10, 2-(2,3-dimethoxy-5-(2-methyl-1-oxo-1,2-dihydro-2,7-naphthyridin-4-yl)phenoxy)-N-(8-((2-(2,6-dioxopiperidin-3-yl)-1,3-dioxoisoindolin-4-yl)amino)octyl)acetamide] | < 10 | 7.00 to 8.00 |  |
| COc1cc(-c2cn(C)c(=O)c3cnccc23)cc(OC)c1CN(C)C(=O)CCCOc1cccc2c1C(=O)N(C1CCC(=O)NC1=O)C2=O (centres unmarked) [Compound D11, N-[[2,6-dimethoxy-4-(2-methyl-1-oxo-1,2-dihydro-2,7-naphthyridin-4-yl)phenyl]methyl]-4-[[2-(2,6-dioxopiperidin-3-yl)-1,3-dioxo-2,3-dihydro-1H-isoindol-4-yl]oxy]-N-methylbutanamide] | < 10 | > 8.00 |  |
| COc1cc(-c2cn(C)c(=O)c3cnccc23)cc(OC)c1CN(C)C(=O)CCCCOc1cccc2c1C(=O)N(C1CCC(=O)NC1=O)C2=O (centres unmarked) [Compound D12, N-[[2,6-dimethoxy-4-(2-methyl-1-oxo-1,2-dihydro-2,7-naphthyridin-4-yl)phenyl]methyl]-5-[[2-(2,6-dioxopiperidin-3-yl)-1,3-dioxo-2,3-dihydro-1H-isoindol-4-yl]oxy]-N-methylpentanamide] | < 10 | > 8.00 |  |
| COc1cc(-c2cn(C)c(=O)c3cnccc23)cc(OC)c1CN(C)C(=O)CCOc1cccc2c1C(=O)N(C1CCC(=O)NC1=O)C2=O (centres unmarked) [Compound D14, N-[[2,6-dimethoxy-4-(2-methyl-1-oxo-1,2-dihydro-2,7-naphthyridin-4-yl)phenyl]methyl]-3-[[2-(2,6-dioxopiperidin-3-yl)-1,3-dioxo-2,3-dihydro-1H-isoindol-4-yl]oxy]-N-methylpropanamide] | > 1000 | > 8.00 |  |
| COc1cc(-c2cn(C)c(=O)c3cnccc23)cc(OC)c1CN(C)Cc1cccc2c1C(=O)N(C1CCC(=O)NC1=O)C2=O (centres unmarked) [Compound D15, 4-(((2,6-dimethoxy-4-(2-methyl-1-oxo-1,2-dihydro-2,7-naphthyridin-4-yl)benzyl)(methyl)amino)methyl)-2-(2,6-dioxopiperidin-3-yl)isoindoline-1,3-dione formic acid] | > 1000 | 7.00 to 8.00 |  |

Second part, led by results:

| DC50 [7] [nM] | pIC50 (BRD9 bromodomain) | SMILES | further results |
| --- | --- | --- | --- |
| 10 to 100 | 7.00 to 8.00 | COc1cc(-c2cn(C)c(=O)c3cnccc23)cc(OC)c1CN(C)CC(=O)N(C)CCOCCOCCNc1cccc2c1C(=O)N(C1CCC(=O)NC1=O)C2=O (centres unmarked) [Compound D13, 2-((2,6-dimethoxy-4-(2-methyl-1-oxo-1,2-dihydro-2,7-naphthyridin-4-yl)benzyl)(methyl)amino)-N-(2-(2-(2-((2-(2,6-dioxopiperidin-3-yl)-1,3-dioxoisoindolin-4-yl)amino)ethoxy)ethoxy)ethyl)-N-methylacetamide] |  |
| 10 to 100 | 7.00 to 8.00 | COc1cc(-c2cn(C)c(=O)c3cnccc23)cc(OC)c1CN(C)CC(=O)N(C)CCOCCOCCNc1ccc2c(c1)C(=O)N(C1CCC(=O)NC1=O)C2=O (centres unmarked) [Compound D16, 2-((2,6-dimethoxy-4-(2-methyl-1-oxo-1,2-dihydro-2,7-naphthyridin-4-yl)benzyl)(methyl)amino)-N-(2-(2-(2-((2-(2,6-dioxopiperidin-3-yl)-1,3-dioxoisoindolin-5-yl)amino)ethoxy)ethoxy)ethyl)-N-methylacetamide] |  |
| > 1000 | 7.00 to 8.00 | COc1cc(-c2cn(C)c(=O)c3cnccc23)cc(OC)c1CN(C)CCCCCCCC(=O)N[C@H](C(=O)N1C[C@H](O)C[C@H]1C(=O)NCc1ccc(-c2scnc2C)cc1)C(C)(C)C [Compound D19, (2S,4R)-1-[(2S)-2-[8-([[2,6-dimethoxy-4-(2-methyl-1-oxo-2,7-naphthyridin-4-yl)phenyl]methyl](methyl)amino)octanamido]-3,3-dimethylbutanoyl]-4-hydroxy-N-[[4-(4-methyl-1,3-thiazol-5-yl)phenyl]methyl]pyrrolidine-2-carboxamide] |  |
| > 1000 | 7.00 to 8.00 | COc1cc(-c2cn(C)c(=O)c3cnccc23)cc(OC)c1CN(C)CCOCCOCC(=O)N[C@H](C(=O)N1C[C@H](O)C[C@H]1C(=O)NCc1ccc(-c2scnc2C)cc1)C(C)(C)C [Compound D20] |  |
